Assay results from PMC3111459 (Breast cancer research and treatment, 2011).

Experiments:
OATP1B3 = settings: in vitro; cited from earlier work
clinical [1] = settings: human, in vivo
OAT2 = settings: in vitro; cited from earlier work
[2] = human, in vivo
clinical [3] = settings: human, in vivo; remark: listed apart in the source

For `CC(=O)O[C@@]12CO[C@@H]1C[C@H](O)[C@@]1(C)C(=O)[C@H](O)C3=C(C)[C@@H](OC(=O)[C@H](O)[C@@H](NC(=O)OC(C)(C)C)c4ccccc4)C[C@@](O)([C@@H](OC(=O)c4ccccc4)[C@H]21)C3(C)C` [Docetaxel], the “substrate for liver OATP1B3” value (OATP1B3) is listed as “substrates for liver OATP1B3”, the clearance (clinical [1]; CL) is listed as 272 mL/min and the half-life (clinical [1]; T1/2) is listed as 45.1 ± 20 h. For the same molecule, the “substrate for liver OAT2” value (OAT2) was “substrate for liver OAT2”, the CL [2] was 18.1 ± 4.35(7) l/h and the T1/2 [2] was 60.2 ± 31.0(7) h.
`Cc1ccc(NC(=O)c2ccc(CN3CCN(C)CC3)cc2)cc1Nc1nccc(-c2cccnc2)n1` [Imatinib] gave a Tmax (clinical [3]) of 5 h.
